{
  "source": "paper PMC7674337",
  "about": "“Phylogenetic analysis of plant multi-domain SEC14-like phosphatidylinositol transfer proteins and structure–function properties of PATELLIN2” (Plant Molecular Biology, 2020)",
  "molecular_target": "T1, PATL2 (PATELLIN2; StrepII-PATL2) (Arabidopsis thaliana, UniProt Q56ZI2)",
  "T1 construct": "full-length CDS from Col-0 root cDNA; StrepII-tagged (pET-52b(+)), E. coli BL21(DE3) pLysS; Strep-Tactin purified",
  "T1 sequence (Q56ZI2 2-683)": "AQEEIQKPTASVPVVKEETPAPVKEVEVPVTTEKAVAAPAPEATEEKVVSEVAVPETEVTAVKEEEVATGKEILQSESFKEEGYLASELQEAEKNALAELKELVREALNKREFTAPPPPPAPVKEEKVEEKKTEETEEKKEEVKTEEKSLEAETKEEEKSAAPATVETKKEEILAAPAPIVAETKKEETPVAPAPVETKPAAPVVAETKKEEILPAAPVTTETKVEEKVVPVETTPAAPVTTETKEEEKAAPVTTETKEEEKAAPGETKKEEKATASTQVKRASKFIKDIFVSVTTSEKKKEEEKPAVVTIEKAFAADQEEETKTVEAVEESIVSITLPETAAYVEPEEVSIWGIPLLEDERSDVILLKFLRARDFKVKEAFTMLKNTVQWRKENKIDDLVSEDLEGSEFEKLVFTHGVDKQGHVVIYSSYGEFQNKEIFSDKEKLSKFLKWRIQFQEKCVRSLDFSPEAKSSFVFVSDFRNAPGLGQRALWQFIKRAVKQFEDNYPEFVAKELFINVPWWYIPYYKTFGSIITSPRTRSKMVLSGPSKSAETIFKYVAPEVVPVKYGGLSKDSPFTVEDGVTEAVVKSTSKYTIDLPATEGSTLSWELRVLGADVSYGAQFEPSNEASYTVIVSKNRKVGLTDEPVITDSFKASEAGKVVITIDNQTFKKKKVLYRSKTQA",
  "assay": "liposome co-sedimentation, immunoblot",
  "format": "binding",
  "settings": "PC/PE liposomes with 7% phosphoinositide; 25 mM Tris-HCl pH 7.5, room temperature",
  "data": [
    {"smiles": "CCCCCCCC/C=C\\CCCCCCCC(=O)OC[C@H](COP(=O)(O)O[C@@H]1[C@H](O)[C@H](O)[C@@H](O)[C@H](O)[C@H]1O)OC(=O)CCCCCCC/C=C\\CCCCCCCC", "note": "[PI, 1,2-dioleoyl-sn-glycero-3-phospho-(1′-myo-inositol)]", "values": [
      {"measurement": "liposome co-sedimentation, immunoblot", "result": "a low amount of PATL2 protein was found in the liposome membrane fraction"}
    ]}
  ]
}
